We go through 2 sequences from PMC12254355 (Nature Communications, 2025).

Ends that are not written are not given here.

Data set [1] has as its system 11 clinically relevant pathogens. Format: cell-based.
The subject of data set [2] is HEK293T cells.
The subject of data set [3] is human red blood cells. The following applies: pH 7.4.
The subject of data set [4] is E. faecalis ATCC 700802 - VRE. The conditions noted are these: ATCC 700802, 24 h.
In data set [5] the test system is K. pneumoniae ATCC 13883. The conditions noted are these: ATCC 13883, 24 h.
The subject of data set [6] is E. coli AIC222 (polymyxin resistant; colistin-resistant strain). The following applies: 24 h.
Data set [7] relates to E. coli AIC221. The conditions noted are these: AIC221, 24 h.
In data set [8] the test system is E. faecium ATCC 700221 - VRE. The following applies: ATCC 700221, 24 h.

For WLGSALKIGAKLL [UniprotKB-2], the “Antimicrobial activity against the pathogen panel (in words)” value in data set [1] is “no activity”. Moreover, in data set [2], the “CC50 vs HEK293T cells” value worked out at 8 µM. In data set [2] (24 h), the “CC50 vs HEK293T cells (source data of Figure 4a)” value is 8.278 µM. In data set [3], this sequence returned an HC50 of 5.529e+042.

As to KFLARLVFRKFILL [UniprotKB-13], the “Minimal Inhibitory Concentration, E. faecalis ATCC 700802 - VRE (+)” value in data set [4] worked out at 32 µmol/L. For the same sequence, the “Minimal Inhibitory Concentration, K. pneumoniae ATCC 13883 (-)” value in data set [5] amounted to 64 µmol/L. In data set [2], the “CC50 vs HEK293T cells” value was determined as 27 µM and the SIcytotoxicity is 13.4. Also, the “Minimal Inhibitory Concentration, E. coli AIC222 (-)” value in data set [6] stood at 32 µmol/L. For the same sequence, the “Minimal Inhibitory Concentration, E. coli AIC221 (-)” value in data set [7] turned out to be 8 µmol/L. Besides, the HC50 in data set [3] was 455.9. Besides, the “Minimal Inhibitory Concentration, E. faecium ATCC 700221 - VRE (+)” value in data set [8] came out at 2 µmol/L.
